# Results published in patent US12239134B2, “Plant antimicrobial compositions including an emulsifier and/or ozone and methods of use” (Arizona Board of Regents on Behalf of The University of …, priority 2018, dated 2025).
# Where two headings read alike, the source gives them in different places.
# Legend:
# [1] = test system: S. Newport; conditions: used alone, previous work, cited from earlier work
# [2] = test system: Salmonella Newport; experiment: Biofilm formation on food contact surface coupons, direct plating; format: cell-based, Salmonella enterica; conditions: two-minute treatment
# Experimental: A protocol based on direct plating was also evaluated for testing the biofilm formation by Salmonella or L. monocytogenes. Biofilms were formed on three different food contact surface coupons (HDPE, Buna-N rubber, and 316 stainless steel) for up to 3 days in 35 mm mini-petri dishes. Biofilms were formed using a 1:10 diluted TSB solution (10 mL) with either S. enterica or L. monocytogenes inoculum (100 μL). The diluted TSB was changed every 16-18 hours with new 1:10 diluted TSB (10 mL). Coupons were removed for sampling and enumeration of strongly attached bacteria at three different time points (Day 0, 1, and 3). The coupons were rinsed with deionized water five times to remove planktonic cells. Then the coupons were immersed in 10 mL of BPW. The coupons were sonicated for 2 minutes using different settings (Tables 11 and 12) for each organism. After sonication, the solution was serially diluted and plated on Tryptic Soy Agar (TSA). Plates were incubated at 37° C. for 24-48 hours. The colonies were counted and the colony forming units were determined for the various sonication settings, so that the appropriate setting with the most recovery could be determined. […] These settings were used in further experiments to recover the bacterial cells from coupons during sampling and enumeration (by spread plating) of the bacteria in biofilms.
# The reduction in bacterial biofilm formation was also tested using a direct plating method. Biofilms were formed on six different food contact surface coupons (HDPE, Buna-N rubber, PC, PVC, and stainless steel 304 and 316) in separate 35 mm mini-petri dishes and evaluated at three different time points (Day 0, 1, and 3). Biofilms were formed using a 1:10 diluted TSB solution (10 mL) with either S. enterica or L. monocytogenes inoculum (100 μL). The coupons were also washed and treated with antimicrobial solutions containing the plant-based emulsifier and the essential oil/plant extracts at various concentrations. The diluted TSB was changed every 16-18 hours with new 1:10 diluted TSB (10 mL). The coupons were rinsed in the antimicrobial solution before adding them to the petri dishes containing the fresh, diluted TSB. After their specific time points, coupons were removed aseptically using sterile forceps from the petri dish. The coupons were rinsed by submerging in 25 mL of sterile deionized H2O and swirled five times to remove planktonic cells. After rinsing, they were placed into a new petri dish immersed in 10 mL of BPW. The coupons were sonicated for 2 minutes on ice using different settings for each organism. After sonication, the sonicated solution was serially diluted using 0.1% peptone water and spread plated on TSA in duplicate. Plates were incubated overnight at 37° C. for 24-48 hours, after which, the colonies were counted, to establish the efficacy of the antimicrobial solutions (Tables 17-25).
smiles,measurement,setting,value
"Cc1ccc(C(C)C)cc1O [Carvacrol, carvacrol]",reduction of S. Newport on iceberg lettuce,[1]; 0.1%,1 log CFU/g
same,reduction of S. Newport on iceberg lettuce,[1]; 0.3%,over 5 log CFU/g
same,reduction of S. Newport on iceberg lettuce,[1]; 0.5%,over 5 log CFU/g
same,Survivors of Salmonella Newport on food contact surface,"[2]; 0.5% with 0.0001% saponin microemulsion, Day 0, 304 SS",4.75 Log CFU/mL
same,Survivors of Salmonella Newport on food contact surface,"[2]; 0.5% with 0.0001% saponin microemulsion, Day 0, 316 SS",4.66 Log CFU/mL
same,Survivors of Salmonella Newport on food contact surface,"[2]; 0.5% with 0.0001% saponin microemulsion, Day 0, Buna N",4.19 Log CFU/mL
same,Survivors of Salmonella Newport on food contact surface,"[2]; 0.5% with 0.0001% saponin microemulsion, Day 0, HDPE",<1 Log CFU/mL
same,Survivors of Salmonella Newport on food contact surface,"[2]; 0.5% with 0.0001% saponin microemulsion, Day 0, PC",<1 Log CFU/mL
same,Survivors of Salmonella Newport on food contact surface,"[2]; 0.5% with 0.0001% saponin microemulsion, Day 0, PVC",2.74 Log CFU/mL
same,Survivors of Salmonella Newport on food contact surface,"[2]; 0.5% with 0.0001% saponin microemulsion, Day 1, 304 SS",4.26 Log CFU/mL
same,Survivors of Salmonella Newport on food contact surface,"[2]; 0.5% with 0.0001% saponin microemulsion, Day 1, 316 SS",4.42 Log CFU/mL
same,Survivors of Salmonella Newport on food contact surface,"[2]; 0.5% with 0.0001% saponin microemulsion, Day 1, Buna N",4.65 Log CFU/mL
same,Survivors of Salmonella Newport on food contact surface,"[2]; 0.5% with 0.0001% saponin microemulsion, Day 1, HDPE",<1 Log CFU/mL
same,Survivors of Salmonella Newport on food contact surface,"[2]; 0.5% with 0.0001% saponin microemulsion, Day 1, PC",<1 Log CFU/mL
same,Survivors of Salmonella Newport on food contact surface,"[2]; 0.5% with 0.0001% saponin microemulsion, Day 1, PVC",4.24 Log CFU/mL
same,Survivors of Salmonella Newport on food contact surface,"[2]; 0.5% with 0.0001% saponin microemulsion, Day 3, 304 SS",<1 Log CFU/mL
same,Survivors of Salmonella Newport on food contact surface,"[2]; 0.5% with 0.0001% saponin microemulsion, Day 3, 316 SS",<1 Log CFU/mL
same,Survivors of Salmonella Newport on food contact surface,"[2]; 0.5% with 0.0001% saponin microemulsion, Day 3, Buna N",<1 Log CFU/mL
same,Survivors of Salmonella Newport on food contact surface,"[2]; 0.5% with 0.0001% saponin microemulsion, Day 3, HDPE",<1 Log CFU/mL
same,Survivors of Salmonella Newport on food contact surface,"[2]; 0.5% with 0.0001% saponin microemulsion, Day 3, PC",<1 Log CFU/mL
same,Survivors of Salmonella Newport on food contact surface,"[2]; 0.5% with 0.0001% saponin microemulsion, Day 3, PVC",<1 Log CFU/mL
same,Survivors of Salmonella Newport on food contact surface,"[2]; 0.7% with 0.0001% saponin microemulsion, Day 0, 304 SS",4.57 Log CFU/mL
same,Survivors of Salmonella Newport on food contact surface,"[2]; 0.7% with 0.0001% saponin microemulsion, Day 0, 316 SS",4.24 Log CFU/mL
same,Survivors of Salmonella Newport on food contact surface,"[2]; 0.7% with 0.0001% saponin microemulsion, Day 0, Buna N",4.44 Log CFU/mL
same,Survivors of Salmonella Newport on food contact surface,"[2]; 0.7% with 0.0001% saponin microemulsion, Day 0, HDPE",4.24 Log CFU/mL
same,Survivors of Salmonella Newport on food contact surface,"[2]; 0.7% with 0.0001% saponin microemulsion, Day 0, PC",4.18 Log CFU/mL
same,Survivors of Salmonella Newport on food contact surface,"[2]; 0.7% with 0.0001% saponin microemulsion, Day 0, PVC",4.63 Log CFU/mL
same,Survivors of Salmonella Newport on food contact surface,"[2]; 0.7% with 0.0001% saponin microemulsion, Day 1, 304 SS",<1 Log CFU/mL
same,Survivors of Salmonella Newport on food contact surface,"[2]; 0.7% with 0.0001% saponin microemulsion, Day 1, 316 SS",<1 Log CFU/mL
same,Survivors of Salmonella Newport on food contact surface,"[2]; 0.7% with 0.0001% saponin microemulsion, Day 1, Buna N",<1 Log CFU/mL
same,Survivors of Salmonella Newport on food contact surface,"[2]; 0.7% with 0.0001% saponin microemulsion, Day 1, HDPE",<1 Log CFU/mL
same,Survivors of Salmonella Newport on food contact surface,"[2]; 0.7% with 0.0001% saponin microemulsion, Day 1, PC",<1 Log CFU/mL
same,Survivors of Salmonella Newport on food contact surface,"[2]; 0.7% with 0.0001% saponin microemulsion, Day 1, PVC",<1 Log CFU/mL
same,Survivors of Salmonella Newport on food contact surface,"[2]; 0.7% with 0.0001% saponin microemulsion, Day 3, 304 SS",<1 Log CFU/mL
same,Survivors of Salmonella Newport on food contact surface,"[2]; 0.7% with 0.0001% saponin microemulsion, Day 3, 316 SS",<1 Log CFU/mL
same,Survivors of Salmonella Newport on food contact surface,"[2]; 0.7% with 0.0001% saponin microemulsion, Day 3, Buna N",<1 Log CFU/mL
same,Survivors of Salmonella Newport on food contact surface,"[2]; 0.7% with 0.0001% saponin microemulsion, Day 3, HDPE",<1 Log CFU/mL
same,Survivors of Salmonella Newport on food contact surface,"[2]; 0.7% with 0.0001% saponin microemulsion, Day 3, PC",<1 Log CFU/mL
same,Survivors of Salmonella Newport on food contact surface,"[2]; 0.7% with 0.0001% saponin microemulsion, Day 3, PVC",<1 Log CFU/mL
same,Survivors of Salmonella Newport on food contact surface,"[2]; 1% with 0.0001% saponin microemulsion, Day 0, 304 SS",<1 Log CFU/mL
same,Survivors of Salmonella Newport on food contact surface,"[2]; 1% with 0.0001% saponin microemulsion, Day 0, 316 SS",<1 Log CFU/mL
same,Survivors of Salmonella Newport on food contact surface,"[2]; 1% with 0.0001% saponin microemulsion, Day 0, Buna N",<1 Log CFU/mL
same,Survivors of Salmonella Newport on food contact surface,"[2]; 1% with 0.0001% saponin microemulsion, Day 0, HDPE",<1 Log CFU/mL
same,Survivors of Salmonella Newport on food contact surface,"[2]; 1% with 0.0001% saponin microemulsion, Day 0, PC",<1 Log CFU/mL
same,Survivors of Salmonella Newport on food contact surface,"[2]; 1% with 0.0001% saponin microemulsion, Day 0, PVC",<1 Log CFU/mL
same,Survivors of Salmonella Newport on food contact surface,"[2]; 1% with 0.0001% saponin microemulsion, Day 1, 304 SS",<1 Log CFU/mL
same,Survivors of Salmonella Newport on food contact surface,"[2]; 1% with 0.0001% saponin microemulsion, Day 1, 316 SS",<1 Log CFU/mL
same,Survivors of Salmonella Newport on food contact surface,"[2]; 1% with 0.0001% saponin microemulsion, Day 1, Buna N",<1 Log CFU/mL
same,Survivors of Salmonella Newport on food contact surface,"[2]; 1% with 0.0001% saponin microemulsion, Day 1, HDPE",<1 Log CFU/mL
same,Survivors of Salmonella Newport on food contact surface,"[2]; 1% with 0.0001% saponin microemulsion, Day 1, PC",<1 Log CFU/mL
same,Survivors of Salmonella Newport on food contact surface,"[2]; 1% with 0.0001% saponin microemulsion, Day 1, PVC",<1 Log CFU/mL
same,Survivors of Salmonella Newport on food contact surface,"[2]; 1% with 0.0001% saponin microemulsion, Day 3, 304 SS",<1 Log CFU/mL
same,Survivors of Salmonella Newport on food contact surface,"[2]; 1% with 0.0001% saponin microemulsion, Day 3, 316 SS",<1 Log CFU/mL
same,Survivors of Salmonella Newport on food contact surface,"[2]; 1% with 0.0001% saponin microemulsion, Day 3, Buna N",<1 Log CFU/mL
same,Survivors of Salmonella Newport on food contact surface,"[2]; 1% with 0.0001% saponin microemulsion, Day 3, HDPE",<1 Log CFU/mL
same,Survivors of Salmonella Newport on food contact surface,"[2]; 1% with 0.0001% saponin microemulsion, Day 3, PC",<1 Log CFU/mL
same,Survivors of Salmonella Newport on food contact surface,"[2]; 1% with 0.0001% saponin microemulsion, Day 3, PVC",<1 Log CFU/mL
